Reference: patent US7767814B2, “Substituted piperidine compounds and methods of their use” (Adolor Corporation, priority 2004, dated 2010)

What was measured:
[1] = target: cloned human δ opioid receptor (Homo sapiens, UniProt P41143); conditions: cloned human opioid receptors; background statement; read-out: Ki, inhibition of [3H]diprenorphine binding, δ receptor; cited from earlier work
[2] = target: cloned human κ opioid receptor (Homo sapiens, UniProt P41145); conditions: cloned human opioid receptors; background statement; read-out: Ki, inhibition of [3H]diprenorphine binding, κ receptor; cited from earlier work
[3] = target: T1, cloned human μ opioid receptor (Homo sapiens, UniProt P35372); test: [3H]diprenorphine receptor binding, cloned human μ opioid receptor
T1 construct: expressed in transfected cells; membranes used
Description: IC50 values were obtained by nonlinear analysis of the data using GraphPad Prism version 3.00 for Windows (GraphPad Software, San Diego). Ki values were obtained by Cheng-Prusoff corrections of IC50 values.
After dilution in buffer A and homogenization as before, membrane proteins (10-80 μg) in 250 μL were added to mixtures containing test compound and [^3H]diprenorphine (0.5 to 1.0 nM, 40,000 to 50,000 dpm) in 250 μL of buffer A in 96-well deep-well polystyrene titer plates (Beckman). […] The filters were rinsed 4 times with 1 mL of cold 50 mM Tris HCl, pH 7.8 and radioactivity remaining on the filters determined by scintillation spectroscopy. Nonspecific binding was determined by the minimum values of the titration curves and was confirmed by separate assay wells containing 10 μM naloxone.
To determine the equilibrium dissociation constant for the inhibitors (Ki), radioligand bound (cpm) in the presence of various concentrations of test compounds was measured. The concentration to give half-maximal inhibition (EC50) of radioligand binding was determined from a best nonlinear regression fit to the following equation, […]

T1 sequence (P35372 whole entry): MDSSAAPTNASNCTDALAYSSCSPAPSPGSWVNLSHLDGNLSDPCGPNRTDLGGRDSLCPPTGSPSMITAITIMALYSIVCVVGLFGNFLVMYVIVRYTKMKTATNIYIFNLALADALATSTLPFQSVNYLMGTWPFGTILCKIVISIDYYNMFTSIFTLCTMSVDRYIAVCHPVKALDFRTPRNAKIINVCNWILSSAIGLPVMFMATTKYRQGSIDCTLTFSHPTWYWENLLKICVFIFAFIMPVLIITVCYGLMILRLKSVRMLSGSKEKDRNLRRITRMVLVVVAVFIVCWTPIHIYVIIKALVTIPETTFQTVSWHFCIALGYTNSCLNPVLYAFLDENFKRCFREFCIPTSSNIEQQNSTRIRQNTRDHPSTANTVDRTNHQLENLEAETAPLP
cloned human δ opioid receptor, sequence (P41143 whole entry): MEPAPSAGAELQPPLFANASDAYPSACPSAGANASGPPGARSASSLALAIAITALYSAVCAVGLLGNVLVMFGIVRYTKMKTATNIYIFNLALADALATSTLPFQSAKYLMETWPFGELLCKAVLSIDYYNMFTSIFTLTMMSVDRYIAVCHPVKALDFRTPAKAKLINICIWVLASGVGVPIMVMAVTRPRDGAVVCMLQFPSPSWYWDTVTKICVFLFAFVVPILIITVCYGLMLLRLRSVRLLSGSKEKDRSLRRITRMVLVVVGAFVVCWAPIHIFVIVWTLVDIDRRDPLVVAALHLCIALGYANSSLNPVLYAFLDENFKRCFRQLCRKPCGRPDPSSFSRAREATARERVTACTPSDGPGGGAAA
cloned human κ opioid receptor, sequence (P41145 whole entry): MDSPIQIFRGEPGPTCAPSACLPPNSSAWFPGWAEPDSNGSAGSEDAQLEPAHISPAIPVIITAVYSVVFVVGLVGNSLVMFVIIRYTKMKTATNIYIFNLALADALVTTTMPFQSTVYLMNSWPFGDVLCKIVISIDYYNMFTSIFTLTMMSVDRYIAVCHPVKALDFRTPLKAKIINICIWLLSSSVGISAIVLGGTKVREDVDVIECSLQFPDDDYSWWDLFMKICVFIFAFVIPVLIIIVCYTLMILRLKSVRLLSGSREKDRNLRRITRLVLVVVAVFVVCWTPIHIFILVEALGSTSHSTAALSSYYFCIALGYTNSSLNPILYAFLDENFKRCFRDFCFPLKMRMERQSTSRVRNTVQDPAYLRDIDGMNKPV

| Structure (SMILES) | Ki [1] | Ki [2] | Ki [3] |
| --- | --- | --- | --- |
| C[C@H]1CN(C[C@H](Cc2ccccc2)C(=O)NCC(=O)O)CC[C@@]1(C)c1cccc(O)c1 [Alvimopan] | 10 nM | 92 nM | – |
| C[C@H]1C2CCC[C@]1(c1cccc(O)c1)CCN2C[C@H](Cc1ccccc1)C(=O)NCC(=O)O [Example 2, {2S-Benzyl-3-[5-(3-hydroxy-phenyl)-9-methyl-2-aza-bicyclo[3.3.1]non-2-yl]-propionylamino}-acetic acid] | – | – | 1.5 nM |
